Data published in patent publication US9273067B2, “Pyrazolopyrimidine macrocycles as inhibitors of human immunodeficiency virus replication” (BRISTOL-MYERS SQUIBB COMPANY, priority 2014, dated 2016).
pEC50: −log10 of the molar value. Where two headings read alike, the source gives them in different places.

Test system: NL-RLuc virus (recombinant HIV NL4-3 with Renilla Luciferase) in MT-2 cells
Experiment: Inhibition of HIV replication (NL-RLuc virus in MT-2 cells, luciferase readout)
Assay type: cell-based, human immunodeficiency virus (HIV)
From the text: Inhibition of HIV Replication:
A recombinant NL-RLuc proviral clone was constructed in which a section of the nef gene from NL4-3 was replaced with the Renilla Luciferase gene. This virus is fully infectious and can undergo multiple cycles of replication in cell culture. In addition, the luciferous reporter provides a simple and easy method for quantitating the extent of virus growth and consequently, the antiviral activity of test compounds. The plasmid pNLRLuc contains the proviral NL-Rluc DNA cloned into pUC 18 at the PvuII site. The NL-RLuc virus was prepared by transfection of 293T cells with the plasmid pNLRLuc. Transfections were performed using the LipofectAMINE PLUS kit from Invitrogen (Carlsbad, Calif.) according to the manufacturer and the virus generated was titered in MT-2 cells. For susceptibility analyses, the titrated virus was used to infect MT-2 cells in the presence of compound, and after 5 days of incubation, cells were processed and quantitated for virus growth by the amount of expressed luciferase. Assay media was RPMI 1640 supplemented with 10% heat inactivated fetal bovine serum (FBS), 100 units/ml penicillin G/100 units/ml streptomycin, 10 mM HEPES buffer pH 7.55 and 2 mM L-glutamine. The results from at least 2 experiments were used to calculate the EC50 values. Luciferase was quantitated using the Dual Luciferase kit from Promega (Madison, Wis.). Susceptibility of viruses to compounds was determined by incubation in the presence of serial dilutions of the compound. The 50% effective concentration (EC50) was calculated by using the exponential form of the median effect equation where (Fa)=1/[1+(ED50/drug conc.)^m] (Johnson V A, Byington R T. Infectivity Assay. In Techniques in HIV Research. ed. Aldovini A, Walker B D. 71-76. New York: Stockton Press. 1990).

[1] = MT2, 120 h, NL-RLuc virus infecting MT-2 cells, 5 days of incubation, 10% FBS, luciferase quantitation, at least 2 experiments
[2] = NL-RLuc virus infecting MT-2 cells, 5 days of incubation, 10% FBS, luciferase quantitation, at least 2 experiments, read-out: EC50

Structure (SMILES) | pEC50 [1] | other results
Cc1ccc2c(c1)O[C@@H](C)CCCCOC1(C)CCN(CC1)c1c([C@H](OC(C)(C)C)C(=O)O)c(C)nc3cc(nn13)CO[C@H]2C (single isomer, unassigned) [Example 55] | 8.15 | 
Cc1ccc2c(c1)O[C@@H](C)CCCCOC1(C)CCN(CC1)c1c([C@H](OC(C)(C)C)C(=O)O)c(C)nc3cc(nn13)CO[C@@H]2C (single isomer, unassigned) [Example 56] | 8.10 | 
Cc1nc2cc3nn2c(c1[C@H](OC(C)(C)C)C(=O)O)N1CCC(C)(CC1)OCC=CCOCc1cn(nn1)C3 [Example 1, (2S)-2-(tert-Butoxy)-2-[4,22-dimethyl-16,21-dioxa-1,5,7,8,11,12,13-heptaazapentacyclo[20.2.2.1^6,^9.1^11,^14.0^2,^7]octacosa-2,4,6(28),8,12,14(27),18-heptaen-3-yl]acetic acid] | 5.60 | 
Cc1nc2cc3nn2c(c1[C@H](OC(C)(C)C)C(=O)O)N1CCC(C)(CC1)OCCCCOCc1cn(nn1)C3 [Example 2, (2S)-2-(tert-Butoxy)-2-{4,22-dimethyl-16,21-dioxa-1,5,7,8,11,12,13-heptaazapentacyclo[20.2.2.1^6,^9.1^11,^14.0^2,^7]octacosa-2,4,6(28),8,12,14(27)-hexaen-3-yl}acetic acid] | 5.57 | 
Cc1nc2cc3nn2c(c1[C@H](OC(C)(C)C)C(=O)O)N1CCC(C)(CC1)OC=CCCOC(C)(C)c1cn(nn1)C3 [Example 3, (2S)-2-(tert-Butoxy)-2-[4,15,15,22-tetramethyl-16,21-dioxa-1,5,7,8,11,12,13-heptaazapentacyclo[20.2.2.1^6,^9.1^11,^14.0^2,^7]octacosa-2,4,6(28),8,12,14(27),19-heptaen-3-yl]acetic acid] |  | pEC50 [2]: 6.60
Cc1nc2cc3nn2c(c1[C@H](OC(C)(C)C)C(=O)O)N1CCC(C)(CC1)OCCC=COC(C)(C)c1cn(nn1)C3 [Example 4, (2S)-2-(tert-Butoxy)-2-[4,15,15,22-tetramethyl-16,21-dioxa-1,5,7,8,11,12,13-heptaazapentacyclo[20.2.2.1^6,^9.1^11,^14.0^2,^7]octacosa-2,4,6(28),8,12,14(27),17-heptaen-3-yl]acetic acid] |  | pEC50 [2]: 6.60
Cc1nc2cc3nn2c(c1[C@H](OC(C)(C)C)C(=O)O)N1CCC(C)(CC1)OCCCCOCc1ccccc1-c1cn(nn1)C3 [Example 5, (2S)-2-(tert-Butoxy)-2-{4,28-dimethyl-22,27-dioxa-1,5,7,8,11,12,13-heptaazahexacyclo[26.2.2.1^6,^9.1^11,^14.0^2,^7.0^15,^20]tetratriaconta-2,4,6(34),8,12,14(33),15(20),16,18-nonaen-3-yl}acetic acid] | 7.35 | 
Cc1nc2cc3nn2c(c1[C@H](OC(C)(C)C)C(=O)O)N1CCC(C)(CC1)OCCCCOc1cccc(c1)-c1cn(nn1)C3 [Example 6, (2S)-2-(tert-Butoxy)-2-{4,26-dimethyl-20,25-dioxa-1,5,7,8,11,12,13-heptaazahexacyclo[24.2.2.1^6,^9.1^11,^14.1^15,^19.0^2,^7]tritriaconta-2,4,6(33),8,12,14(32),15(31),16,18-nonaen-3-yl}acetic acid] | 7.10 | 
Cc1nc2cc3nn2c(c1[C@H](OC(C)(C)C)C(=O)O)N1CCC(C)(CC1)OC=CCCOC1(CCCCC1)c1cn(nn1)C3 [Example 7, (2S)-2-(tert-Butoxy)-2-[4′,22′-dimethyl-16′,21′-dioxa-1′,5′,7′,8′ 11′,12′,13′-heptaazaspiro[cyclohexane-1,15′-pentacyclo[20.2.2.1^6,^9.1^11,^14.0^2,^7]octacosane]-2′,4′,6′(28′),8′,12′,14′(27′),19′-heptaen-3′-yl]acetic acid] |  | pEC50 [2]: 6.87
Cc1nc2cc3nn2c(c1[C@H](OC(C)(C)C)C(=O)O)N1CCC(C)(CC1)OCCCCOC1(CCCCC1)c1cn(nn1)C3 [Example 8, (2S)-2-(tert-Butoxy)-2-{4′,22′-dimethyl-16′,21′-dioxa-1′,5′,7′,8′,11′,12′,13′-heptaazaspiro[cyclohexane-1,15′-pentacyclo[20.2.2.1^6,^9.1^11,^14.0^2,^7]octacosane]-2′,4′,6′(28′),8′,12′,14′(27′)-hexaen-3′-yl}acetic acid] | 6.95 | 
Cc1nc2cc3nn2c(c1[C@H](OC(C)(C)C)C(=O)O)N1CCC(C)(CC1)OCCCCOC(C(C)C)c1cn(nn1)C3 (stereo partly drawn) [Example 10, (2S)-2-(tert-Butoxy)-2-[4,22-dimethyl-15-(propan-2-yl)-16,21-dioxa-1,5,7,8,11,12,13-heptaazapentacyclo[20.2.2.1^6,^9.1^11,^14.0^2,^7]octacosa-2,4,6(28),8,12,14(27)-hexaen-3-yl]acetic acid] | 6.60 | 
Cc1nc2cc3nn2c(c1[C@H](OC(C)(C)C)C(=O)O)N1CCC(C)(CC1)OCCCCOC(C(C)C)c1cn(nn1)C3 (stereo partly drawn) [Example 11, (2S)-2-(tert-Butoxy)-2-[4,22-dimethyl-15-(propan-2-yl)-16,21-dioxa-1,5,7,8,11,12,13-heptaazapentacyclo[20.2.2.1^6,^9.1^11,^14.0^2,^7]octacosa-2,4,6(28),8,12,14(27)-hexaen-3-yl]acetic acid] |  | pEC50 ({}): 6.69
Cc1nc2cc3nn2c(c1[C@H](OC(C)(C)C)C(=O)O)N1CCC(C)(CC1)OCCCCOC(CC(C)C)c1cn(nn1)C3 (stereo partly drawn) [Example 12, (2S)-2-(tert-Butoxy)-2-[4,22-dimethyl-15-(2-methylpropyl)-16,21-dioxa-1,5,7,8,11,12,13-heptaazapentacyclo[20.2.2.1^6,^9.1^11,^14.0^2,^7]octacosa-2,4,6(28),8,12,14(27)-hexaen-3-yl]acetic acid] | 6.87 | 
Cc1nc2cc3nn2c(c1[C@H](OC(C)(C)C)C(=O)O)N1CCC(C)(CC1)OCCCCOC(CC(C)C)c1cn(nn1)C3 (stereo partly drawn) [Example 13, (2S)-2-(tert-Butoxy)-2-[4,22-dimethyl-15-(2-methylpropyl)-16,21-dioxa-1,5,7,8,11,12,13-heptaazapentacyclo[20.2.2.1^6,^9.1^11,^14.0^2,^7]octacosa-2,4,6(28),8,12,14(27)-hexaen-3-yl]acetic acid] |  | pEC50 ({}): 6.91
Cc1nc2cc3nn2c(c1[C@H](OC(C)(C)C)C(=O)O)N1CCC(C)(CC1)OCC=CCc1ccccc1C(=O)NC3 [Example 14, (2S)-2-(tert-Butoxy)-2-[4,24-dimethyl-12-oxo-23-oxa-1,5,7,8,11-pentaazapentacyclo[22.2.2.1^6,^9.0^2,^7.0^13,^18]nonacosa-2,4,6(29),8,13(18),14,16,20-octaen-3-yl]acetic acid] | 7.35 | 
Cc1nc2cc3nn2c(c1[C@H](OC(C)(C)C)C(=O)O)N1CCC(C)(CC1)OCCCCc1ccccc1C(=O)NC3 [Example 15, (2S)-2-(tert-Butoxy)-2-{4,24-dimethyl-12-oxo-23-oxa-1,5,7,8,11-pentaazapentacyclo[22.2.2.1^6,^9.0^2,^7.0^13,^18]nonacosa-2,4,6(29),8,13(18),14,16-heptaen-3-yl}acetic acid] | 6.92 | 
Cc1nc2cc3nn2c(c1[C@H](OC(C)(C)C)C(=O)O)N1CCC(C)(CC1)OCC=CCOc1ccccc1CC(=O)NC3 [Example 16, (2S)-2-(tert-Butoxy)-2-[4,26-dimethyl-12-oxo-20,25-dioxa-1,5,7,8,11-pentaazapentacyclo[24.2.2.1^6,^9.1^2,^7.0^14,^19]hentriaconta-2,4,6(31),8,14(19),15,17,22-octaen-3-yl]acetic acid] |  | pEC50 [2]: 7.68
Cc1nc2cc3nn2c(c1[C@H](OC(C)(C)C)C(=O)O)N1CCC(C)(CC1)OCCCCOc1ccccc1CC(=O)NC3 [Example 17, (2S)-2-(tert-Butoxy)-2-{4,26-dimethyl-12-oxo-20,25-dioxa-1,5,7,8,11-pentaazapentacyclo[24.2.2.1^6,^9.1^2,^7.0^14,^19]hentriaconta-2,4,6(31),8,14(19),15,17-heptaen-3-yl}acetic acid] | 7.62 | 
Cc1cc(CN2CC=CCOC3(C)CCN(CC3)c3c([C@H](OC(C)(C)C)C(=O)O)c(C)nc4cc(nn34)CNC(=O)C2=O)ccc1F [Example 18, (2S)-2-(tert-Butoxy)-2-[14-[(4-fluoro-3-methylphenyl)methyl]-4,20-dimethyl-12,13-dioxo-19-oxa-1,5,7,8,11,14-hexaazatetracyclo[18.2.2.1^6,^9.0^2,^7]pentacosa-2,4,6(25),8,16-pentaen-3-yl]acetic acid] | 6.91 | 
Cc1cc(CN2CCCCOC3(C)CCN(CC3)c3c([C@H](OC(C)(C)C)C(=O)O)c(C)nc4cc(nn34)CNC(=O)C2=O)ccc1F [Example 19, (2S)-2-(tert-Butoxy)-2-{14-[(4-fluoro-3-methylphenyl)methyl]-4,20-dimethyl-12,13-dioxo-19-oxa-1,5,7,8,11,14-hexaazatetracyclo[18.2.2.1^6,^9.0^2,^7]pentacosa-2,4,6(25),8-tetraen-3-yl}acetic acid] | 7.47 | 
Cc1nc2cc3nn2c(c1[C@H](OC(C)(C)C)C(=O)O)N1CCC(C)(CC1)OCC/C=C\c1ccccc1OC3 [Example 20] |  | pEC50 [2]: 6.98
